The results in this text go back to US10301295B2, “Herbicidal compounds” (Syngenta Participations AG, priority 2014, dated 2019).

Holding throughout (format): in vivo
Experiment [1] relates to Alopecurus myosuroides (ALOMY). The experiment is described as follows: Glasshouse assay for herbicidal activity, pre-/post-emergence (percentage phytotoxicity). The note with it: Alopecurus myosuroides, Rate 250 g/ha, 100%=total damage, 0%=no damage. In a few lines:
(§1)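 Percentage phytotoxicity was assessed visually, 100% meaning total plant damage and 0% none, at 20 days after application for pre-emergence and 15 days for post-emergence. Plants were potted in standard soil and treated after 1 day or about 12 days of growth.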

Another experiment deals with Avena fatua (AVEFA). The description is as above. To be noted: Avena fatua, Rate 250 g/ha, 100%=total damage, 0%=no damage. An outline of the steps:
as §1

Experiment [2] deals with Echinochloa crus-galli (ECHCG). Described as above. To be noted: Echinochloa crus-galli, Rate 250 g/ha, 100%=total damage, 0%=no damage. An outline of the steps:
as §1

Another experiment relates to Lolium perenne (LOLPE). The experiment is described as above. To be noted: Lolium perenne, Rate 250 g/ha, 100%=total damage, 0%=no damage. An outline of the steps:
as §1

For the next experiment, the system named is wheat. The experiment is described as follows: Post-emergence herbicidal activity against cereal crops (wheat) +/- safener, crop selectivity. The note with it: 100%=total damage to plant, 0%=no damage; for Post-emergence herbicidal activity against wheat (percentage phytotoxicity), +CQC: 250 g/ha, plus safener cloquintocet-mexyl (CQC) applied at 50 g/ha; for percent phytotoxicity (crop damage) to wheat at 250 g/ha: Triticum aestivum, 360 h, without safener, read-out: Post-emergence herbicidal activity against wheat (percentage phytotoxicity), Wheat - CQC. An outline of the steps:
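Test plants raised in pots in a glasshouse (24/18 °C warm or 20/16 °C cool species day/night, 16 h light, 65% humidity) and treated post-emergence about 12 days after sowing. Visual percentage phytotoxicity scored 15 days after application (0% = no damage, 100% = total damage).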

The mark [3] stands for this setting: 360 h, post-emergence, visual assessment 15 DAA, read-out: Post-emergence herbicidal activity (percentage phytotoxicity), ALOMY POST.
The mark [4] stands for this setting: 480 h, pre-emergence, visual assessment 20 DAA, read-out: Pre-emergence herbicidal activity (percentage phytotoxicity), ALOMY PRE.
The mark [5] stands for this setting: post-emergence, 360 h, post-emergence, visual assessment 15 DAA, read-out: Post-emergence herbicidal activity (percentage phytotoxicity), AVEFA POST.
Where [6] appears, read: pre-emergence, 480 h, pre-emergence, visual assessment 20 DAA, read-out: Pre-emergence herbicidal activity (percentage phytotoxicity), AVEFA PRE.
[7] abbreviates: post-emergence, 360 h, post-emergence, visual assessment 15 DAA, read-out: Post-emergence herbicidal activity (percentage phytotoxicity), ECHCG POST.
[8] abbreviates: pre-emergence, 480 h, pre-emergence, visual assessment 20 DAA, read-out: Pre-emergence herbicidal activity (percentage phytotoxicity), ECHCG PRE.
[9] abbreviates: post-emergence, 360 h, post-emergence, visual assessment 15 DAA, read-out: Post-emergence herbicidal activity (percentage phytotoxicity), LOLPE POST.
The mark [10] stands for this setting: pre-emergence, 480 h, pre-emergence, visual assessment 20 DAA, read-out: Pre-emergence herbicidal activity (percentage phytotoxicity), LOLPE PRE.

Molecules are shown by their SMILES. Where two headings read alike, the source gives them in different places.

On to `Cc1cc(C)c(C2C(=O)CC(CCNS(=O)(=O)c3ccc(Cl)c(Cl)c3)C2=O)c(C)c1` (stereo not drawn) [Compound A78], for which the pest or weed control at 250 g/ha in experiment [1] (setting [3]) was determined as 40%; in experiment [1] (setting [4]) it was 60%; with Avena fatua (AVEFA) (setting [5]) it was 80%; in the experiment on Avena fatua (AVEFA) (setting [6]), 0%; in experiment [2] (setting [7]), 30%; in experiment [2] (setting [8]), 20%. For the same compound, the pest or weed control at 250 g/ha with Lolium perenne (LOLPE) (setting [9]) amounted to 60%; in the experiment with Lolium perenne (LOLPE) (setting [10]), 70%. In the experiment with wheat, the “Post-emergence herbicidal activity against wheat (percentage phytotoxicity), +CQC” value is given as 0%. The percent phytotoxicity (crop damage) to wheat at 250 g/ha in the experiment with wheat was 0%.
As for `Cc1cc(C)c(C2C(=O)CC(CCNC(=O)Nc3cc(C(F)(F)F)ccn3)C2=O)c(C)c1.Cl` (stereo not drawn) [Compound A2, 1-[2-[2,4-dioxo-3-(2,4,6-trimethylphenyl)cyclopentyl]ethyl]-3-[4-(trifluoromethyl)-2-pyridyl]urea], the pest or weed control at 250 g/ha in experiment [1] (setting [3]) came out at 80%; in experiment [1] (setting [4]), 70%; in the experiment on Avena fatua (AVEFA) (setting [5]) it was 100%; in the experiment with Avena fatua (AVEFA) (setting [6]), 80%; in experiment [2] (setting [7]), 100%; in experiment [2] (setting [8]), 90%. Also, the figures for the pest or weed control at 250 g/ha in the experiment with Lolium perenne (LOLPE) (setting [9]) and in the experiment with Lolium perenne (LOLPE) (setting [10]) were 100% and 80%, respectively. Further, the “Post-emergence herbicidal activity against wheat (percentage phytotoxicity), +CQC” value with wheat is 80%. For the same compound, the percent phytotoxicity (crop damage) to wheat at 250 g/ha in the experiment on wheat turned out to be 80%.
As for `Cc1cc(C)c(C2C(=O)CC(CCNC(=S)Nc3ccccc3)C2=O)c(C)c1` (stereo not drawn) [Compound A90, 1-[2-[2,4-dioxo-3-(2,4,6-trimethylphenyl)cyclopentyl]ethyl]-3-phenyl-thiourea], the pest or weed control at 250 g/ha in experiment [1] (setting [3]) turned out to be 20%; in experiment [1] (setting [4]), 0%; in the experiment with Avena fatua (AVEFA) (setting [5]), 60%; in the experiment on Avena fatua (AVEFA) (setting [6]) it was 0%; in experiment [2] (setting [7]), 60%; in experiment [2] (setting [8]) it was 40%. The pest or weed control at 250 g/ha in the experiment on Lolium perenne (LOLPE) (setting [9]) was 20%; in the experiment on Lolium perenne (LOLPE) (setting [10]), 70%. Further, the “Post-emergence herbicidal activity against wheat (percentage phytotoxicity), +CQC” value with wheat amounted to 20%. In the experiment on wheat, the percent phytotoxicity (crop damage) to wheat at 250 g/ha came out at 0%.
`Cc1cc(C)c(C2C(=O)CC(CCNC(=O)N(C)C(C)(C)C)C2=O)c(C)c1` (stereo not drawn) [Compound A14]: the pest or weed control at 250 g/ha in experiment [1] (setting [3]) turned out to be 80%; in experiment [1] (setting [4]), 90%; in the experiment with Avena fatua (AVEFA) (setting [5]), 90%; in the experiment on Avena fatua (AVEFA) (setting [6]), 90%; in experiment [2] (setting [7]), 100%; in experiment [2] (setting [8]), 100%. In addition, the pest or weed control at 250 g/ha in the experiment on Lolium perenne (LOLPE) (setting [9]) and in the experiment with Lolium perenne (LOLPE) (setting [10]) was 100% in each case. Besides, the “Post-emergence herbicidal activity against wheat (percentage phytotoxicity), +CQC” value with wheat was found to be 30%. Further, the percent phytotoxicity (crop damage) to wheat at 250 g/ha in the experiment with wheat came to 60%.
As to `Cc1cc(C)c(C2C(=O)CC(CCNC(=O)N3CCOCC3)C2=O)c(C)c1` (stereo not drawn) [Compound A47], the pest or weed control at 250 g/ha in experiment [1] (setting [3]) was determined as 60%; in experiment [1] (setting [4]), 60%; in the experiment on Avena fatua (AVEFA) (setting [5]) it was 70%; in the experiment on Avena fatua (AVEFA) (setting [6]), 0%; in experiment [2] (setting [7]), 60%; in experiment [2] (setting [8]) it was 80%. The pest or weed control at 250 g/ha in the experiment with Lolium perenne (LOLPE) (setting [9]) was 30%; in the experiment with Lolium perenne (LOLPE) (setting [10]), 50%. Also, the “Post-emergence herbicidal activity against wheat (percentage phytotoxicity), +CQC” value in the experiment with wheat came out at 0%. Besides, in the experiment on wheat, the percent phytotoxicity (crop damage) to wheat at 250 g/ha turned out to be 50%.
Take `Cc1cc(C)c(C2C(=O)CC(CCNC(=O)Nc3ccc(F)cn3)C2=O)c(C)c1` (stereo not drawn) [Compound A12]: the pest or weed control at 250 g/ha in experiment [1] (setting [3]) was found to be 90%; in experiment [1] (setting [4]), 90%; with Avena fatua (AVEFA) (setting [5]) it was 90%; with Avena fatua (AVEFA) (setting [6]) it was 90%; in experiment [2] (setting [7]) it was 90%; in experiment [2] (setting [8]), 100%. Besides, the pest or weed control at 250 g/ha in the experiment with Lolium perenne (LOLPE) (setting [9]) and in the experiment on Lolium perenne (LOLPE) (setting [10]) was 90% throughout. The “Post-emergence herbicidal activity against wheat (percentage phytotoxicity), +CQC” value with wheat stood at 80%. Further, the percent phytotoxicity (crop damage) to wheat at 250 g/ha in the experiment on wheat turned out to be 90%.
